# Target: Coagulation factor X (Homo sapiens, UniProt P00742)
# Experiment: Inhibition of human factor 10a using […] as substrate by spectrophotometric method
# Chain of Coagulation factor X (P00742 41-179 limits assumed): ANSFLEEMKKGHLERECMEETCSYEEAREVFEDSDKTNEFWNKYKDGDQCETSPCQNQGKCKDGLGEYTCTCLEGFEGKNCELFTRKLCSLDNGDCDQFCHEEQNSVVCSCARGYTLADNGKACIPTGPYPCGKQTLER
# Chain of Coagulation factor X (P00742 235-488 limits assumed): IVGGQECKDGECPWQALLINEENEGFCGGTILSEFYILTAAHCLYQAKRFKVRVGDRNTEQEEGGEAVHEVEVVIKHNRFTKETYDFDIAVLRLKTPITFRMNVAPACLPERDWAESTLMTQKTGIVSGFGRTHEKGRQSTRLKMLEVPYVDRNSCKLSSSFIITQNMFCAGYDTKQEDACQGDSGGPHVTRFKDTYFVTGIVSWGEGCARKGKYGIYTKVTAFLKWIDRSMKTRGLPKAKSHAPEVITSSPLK
row,SMILES,Ki
1,C[N+](C)(C)CCCN1C(=O)[C@@H]2[C@H](C1=O)[C@H](c1cc(-c3ccc(Cl)s3)on1)N1CCC[C@@H]21 (racemic),9 nM
2,CNCCCN1C(=O)[C@@H]2[C@H](C1=O)[C@H](c1cc(-c3ccc(Cl)s3)on1)N1CCC[C@@H]21 (racemic),911 nM
3,CN(C)CCCN1C(=O)[C@@H]2[C@H](C1=O)[C@H](c1cc(-c3ccc(Cl)s3)on1)N1CCC[C@@H]21 (racemic),56 nM
4,NCCCN1C(=O)[C@@H]2[C@H](C1=O)[C@H](c1cc(-c3ccc(Cl)s3)on1)N1CCC[C@@H]21 (racemic),9800 nM
5,CC(C)(C)CCCN1C(=O)[C@@H]2[C@H](C1=O)[C@H](c1cc(-c3ccc(Cl)s3)on1)N1CCC[C@@H]21 (racemic),550 nM
